pIC50: −log10 of the molar value. Entries after “also recorded” stand apart in the source; their conditions may differ. Like-named read-outs stand apart in the source and are kept apart here.

The test system of assay [1] is APOBEC3G, Vif and cellular Hsp90 substrates (AKT, HER2). The assay is described as follows: Western blot of viral and cellular proteins in 293T cells co-transfected with HIV-1 (pLAI2) and HA-tagged APOBEC3G. The class given is cell-based. Particulars: 50 μM, 24 h. How it is done:
FIG. 13. […] 293T cells were co-transfected with HIV-1 (pLAI2) and HA-tagged APOBEC3G vectors and cultured for 24 h in the presence (+) or absence (−) of 50 μM RN-18. Cell lysates were collected and used for Western blot analysis with antibodies against the viral and cellular proteins indicated. Levels of cellular GAPDH were used as a loading control.
Both RN-18 and 17-AAG interact with HSP90 in Cul5 mediated E3 ligase complex. […] Cell lysates were prepared and various viral and cellular protein levels were analyzed by immunoblotting (FIG. 13). Levels of cellular GAPDH were used as loading controls.
On the technique in general: In western blotting, separated proteins are transferred to a membrane and probed.

The subject of assay [2] is HIV-1 in CEM cells. The note with it: CEM cells (non-permissive); cited from earlier work.
For assay [3], the system named is wild-type HIV-1 (HIV-1LAI) in H9 cells (non-permissive). The assay is described as follows: microbe, parasite or virus in culture. Particulars: for IC50: wild-type HIV-1, non-permissive H9 cells. The class given is cell-based.
For assay [4], the system named is HSP90. Description: ViTAP (Vif inhibitor Target Affinity Purification): streptavidin affinity purification of compound-bound proteins. The class given is binding.
Assay [5] deals with wild-type HIV-1 (HIV-1LAI) in H9 cells (non-permissive). The note with it: earlier finding on RN-18; cited from earlier work.
Assay [6] relates to wild-type HIV-1 (HIV-1LAI) in MT-4 cells (permissive). Description: Antiviral activity assay: wild-type HIV-1 in permissive MT4 cells, reverse transcriptase activity in culture supernatants. The class given is cell-based. Particulars: wild-type HIV-1, permissive MT4 cells, read-out: Antiviral activity (IC50 μM) MT4 cells.
Assay [7] shares this test system. The note with it: 100 μM; cited from earlier work.
Assay [8] has as its system A3G and Vif levels in HSP90 or Cul5 knockdown cells. The assay is described as follows: Knockdown of Hsp90 and Cul5 followed by IMA82 treatment, immunoblot.
Assay [9] has as its system Vif-A3G-HSP90-Cul5-CBF-β E3 ligase complex. The assay is described as follows: Immunoprecipitation of IMA82-interacting proteins / E3 ligase complex. The class given is cell-based. How it is done:
Cells were washed twice with PBS and lysed in IP lysis buffer (Thermo) or in a buffer composed of 50 mM Tris-HCl (pH 7.2), 150 mM NaCl, 1% NP-40, 10% glycerol, and protease inhibitor cocktail. Cell lysates ([…]) were incubated with 5 μl of rat anti-HA (Roche), rabbit anti-GFP (Cell Signaling), mouse anti-Hsp90 (Millipore), or rabbit anti-Cul5 (Sigma) plus 30 μl of protein A or G DYNABEADS® (Invitrogen) and rotated at RT for 2 h. The beads were washed three times with PBS containing 0.05% Tween 20. Each lysate was immunoprecipitated in triplicate and the beads were combined. Immune complexes were eluted by boiling in 5×SDS sample buffer. The proteins were separated by SDS-PAGE and analyzed by immunoblotting with antibodies to HA (A3G), GFP (Vif), Hsp90, Cul5, and CBF-β, as described above.

In assay [10] the test system is HSP90-A3G interaction (GST-Hsp90, recombinant human A3G). The assay is described as follows: In vitro binding of purified GST-HSP90 and recombinant A3G. Particulars: purified proteins, 50 μM in 1% DMSO.
Assay [11] concerns HA-tagged A3G and GFP-tagged Vif or ΔVif in 293FT cells. The assay is described as follows: Immunoblot of A3G and Vif levels in transfected 293FT cells. Particulars: 16 h.
Assay [12] concerns A3G and Vif levels in HSP90 or Cul5 knockdown cells.
The test system of assay [13] is A3G, Vif, p24, HSP90 in HIV-1LAI-infected H9 and MT4 cells. The assay is described as follows: Protein analysis (immunoblot) of HIV-1 infected H9 and MT4 cells. The class given is cell-based. Particulars: for HIV-1 p24 levels: 72 h. How it is done:
Non-permissive (H9) and permissive (MT4) cells were treated with 1% DMSO, IMA82, or 17-DMAG overnight and then infected with HIV-1LAI for 5 h. Cells were washed three times with PBS and cultured in medium for 72 h in the presence of the same concentrations of DMSO, IMA82, or 17-DMAG. Total cell lysates were prepared with M-PER buffer containing 0.5% Triton X-100, 150 mM NaCl, 5 mM EDTA, and protease inhibitor cocktail. Protein concentrations were determined with the DC protein assay kit (Bio-Rad). Immunoblotting was performed as described above.

Assay [14] relates to polyubiquitination of A3G and Vif. The assay is described as follows: Ubiquitination assay in 293FT cells. The class given is cell-based. Particulars: 293FT cells expressing HA-A3G and GFP-Vif, 10 μM, ALLN. How it is done: Cells were incubated with or without 10 μM of IMA82, IMD55, or IMD64 for 16 h, and then with or without 10 μM of the calpain inhibitor ALLN for 4 h. The cells were washed once with PBS and lysed. Samples of 200 μg protein were immunoprecipitated by the addition of rat anti-HA (Roche) or mouse anti-GFP (Wako) antibodies (7 μg) and 50 μl protein G DYNABEADS® (Invitrogen) and rotated at RT for 2 h. The beads were washed three times with PBS containing 0.05% Tween 20 and boiled in 5×SDS sample buffer. The denatured proteins were resolved and electroblotted onto PVDF membranes. The membranes were probed with rabbit anti-ubiquitin, rabbit anti-HA, or rabbit anti-GFP antibodies, as described above.

The term pIC50 denotes the IC50 on a negative log10 scale, so that one unit is a factor of ten. Broadly, the IC50 is the concentration that inhibits the measured activity by half. Regarding `COc1ccccc1NC(=O)c1ccccc1Sc1ccc([N+](=O)[O-])cc1` [RN-18, N-(2-methoxyphenyl)-2-((4-nitrophenyl)thio)benzamide], the “levels of cellular Hsp90 substrates (AKT and HER2)” value in assay [1] is “no effect on AKT and HER2 levels; also recorded: does not affect the levels of cellular Hsp90 substrates”. Besides, in [1] (HIV-1 (pLAI2) and HA-A3G), the A3G level result is given as “restored A3G; also recorded: specifically restores APOBEC3G”. The Vif level entry in assay [1] (HIV-1 (pLAI2) and HA-A3G) was “enhanced degradation of Vif”. Further, the pIC50 was 5.35 in [2]; 5.22 in assay [3] (Human immunodeficiency virus 1, H9, read-out: IC50, anti-HIV-1 activity, non-permissive H9 cells); 5.22 in assay [5]. Besides, the “viral replication (reverse transcriptase activity)” value in [3] (HSP90 knockdown H9 cells, 15 days) was “no effect”; in assay [3] (shNT control H9 cells, 15 days) it was “inhibited viral replication”. Also, the IC50 in [3] (Human immunodeficiency virus 1, H9, read-out: Antiviral activity (IC50 μM) H9 cells, Table 1) is 6 µM; in [3] (Human immunodeficiency virus 1, H9, read-out: Antiviral activity (IC50 μM) H9 cells, Table 3), 6 µM; in assay [6] (Human immunodeficiency virus 1, MT4, Table 1), more than 50 µM; in assay [6] (Human immunodeficiency virus 1, MT4, Table 3) it was more than 50 µM. The “inhibition of IMA82 (25 μM) binding to FLAG-tagged HSP90” value in assay [4] (competitive binding, 0-30 μM competitor, 293FT cells) was “dose-dependently inhibited”. In addition, the “activity in MT4 cell line” value in assay [7] is on record as “does not show any activity; also recorded: does not inhibit viral infectivity”.

`COc1cc(C(=O)NCCOCCOCCOCCNC(=O)CCCCC2SCC3NC(=O)NC32)ccc1NC(=O)c1ccc(Sc2ccc([N+](=O)[O-])cc2)cc1Cl` (centres unmarked) [IMA82, 2-chloro-N-(2-methoxy-4-((13-oxo-17-(2-oxohexahydro-1H-thieno[3,4-d]imidazol-4-yl)-3,6,9-trioxa-12-azaheptadecyl)carbamoyl)phenyl)-4-((4-nitrophenyl)thio)benzamide]: the “A3G or Vif levels” value in [8] (Cul5-depleted 293FT-A3G-Vif cells) was “no further effect”. Also, the A3G levels entry in assay [8] (control siRNA (siNT) 293FT-A3G-Vif cells) is “rescue of A3G levels”. Moreover, in [9] (293FT cells transfected with FLAG-HSP90 and HA-A3G, 16 h), the “HSP90-A3G interaction, FLAG-HSP90 affinity purification” value was “inhibited interactions of HSP90 and A3G”. Besides, the “A3G association with the immunoprecipitated E3 ligase complexes” value in assay [9] (293FT-A3G-Vif and 293FT-A3G-ΔVif cells, 10 μM) was “prevents APOBEC3G association; also recorded: not present”. The “A3G binding to GST-HSP90” value in assay [10] is given as “block APOBEC3G association; also recorded: inhibited A3G binding to GST-HSP90”. In assay [11] (293FT cells co-expressing HA-A3G and Vif or ΔVif), the A3G expression result is “dose-dependently restored A3G expression; also recorded: enhances APOBEC3G expression”. In addition, the “Vif expression / degradation” value in assay [11] (293FT cells co-expressing HA-A3G and Vif) is “induces Cul5-mediated degradation of Vif; also recorded: enhanced Vif degradation; also recorded: reduces Vif expression”. Besides, in assay [11] (transfected 293FT cells), the CBF-β levels result was “no effect on levels of CBF-β” and the HSP90 expression result is “did not significantly affect expression of HSP90 protein”. Moreover, the “A3G or Vif levels” value in [12] was “no effect”. In assay [13] (HIV-1-infected H9 cells), the A3G levels result is listed as “restored A3G levels” and the Vif levels result is listed as “decreased Vif levels”. Besides, in [13] (HIV-1LAI-infected H9 cells), the “HIV-1 p24 levels” value is given as “reduced”. In addition, the “HIV-1 p24 levels” value in [13] (HIV-1LAI-infected MT4 cells) is “not MT4 cells”. For the same molecule, the “viral replication (reverse transcriptase activity in supernatants)” value in assay [3] (H9 cells, HIV-1LAI, up to 50 μM, 15 days) is on record as “dose-dependently inhibited viral replication”. Further, the “co-purification of HSP90 (90 kDa protein) with the compound” value in [4] (transfected 293FT cells, streptavidin affinity purification) is recorded as “HSP90 is targeted; also recorded: purified a specific 90 kDa protein; also recorded: co-purified with IMA82; also recorded: specifically interacts with HSP90”. For the same molecule, in assay [14], the A3G ubiquitination entry is “not observed; also recorded: reduced” and the Vif ubiquitination result is given as “ubiquitinated; also recorded: increased”.
